Results on 23 molecules are retold here after paper PMC10587743 (RSC Advances, 2023).

Read-outs that look alike come from different tables or passages of the source.

The test system of assay [1] is A549 lung cancer cell lines. To be noted: cited from earlier work.
Assay [2] deals with HCT-116 colon cancer cell line. As to the kind of experiment: MTT cytotoxicity assay, HCT-116. The following applies: Homo sapiens, HCT-116, read-out: In vitro cytotoxicity IC50, HCT-116. (Tetrazolium dyes change colour on reduction, which living cells bring about.)
Assay [3] has as its system MCF-7 breast cancer cell line. Put plainly: MTT cytotoxicity assay, MCF-7. To be noted: Homo sapiens, MCF7, read-out: In vitro cytotoxicity IC50, MCF-7.
The subject of assay [4] is HePG2 liver cancer cell line. Put plainly: MTT cytotoxicity assay, HePG2. The assay is classed as cell-based. The following applies: Homo sapiens, HepG2, read-out: In vitro cytotoxicity IC50, HePG2.
Assay [5] has as its target EGFR TK (Homo sapiens, UniProt P00533). Put plainly: EGFR kinase inhibition assay. Type of assay: biochemical.
Assay [6] has as its system HePG-2, HCT-116, and MCF-7 cell lines. As to the kind of experiment: MTT cytotoxicity, range over the three cell lines. The assay is classed as cell-based. To be noted: 144 h, read-out: IC50 values ranging over HePG-2, HCT-116, and MCF-7 cell lines.
Assay [7] concerns P-gp in HepG-2/ADR cells. As to the kind of experiment: Quantitative real-time PCR for P-glycoprotein. Type of assay: cell-based, human. To be noted: 72 h, control HepG2 = 1. Background: Real-time PCR tracks product formation cycle by cycle.
For assay [8], the target named is CDK-2 (Homo sapiens, UniProt P24941). As to the kind of experiment: CDK-2 kinase inhibition assay. The assay is classed as biochemical.
Assay [9] relates to HCT-116 cells. Put plainly: Annexin V-FITC/PI apoptosis assay. The assay is classed as cell-based. The following applies: HCT-116, 6o at IC50.
Assay [10] relates to HCT-116 cells. Put plainly: Cell cycle analysis by flow cytometry. The assay is classed as cell-based. The following applies: HCT-116, 6o at IC50 (5.84 μM); control 42.94%.
The subject of assay [11] is leukemia L1210 cells. The following applies: read-out: IC50 against leukemia L1210 cells; cited from earlier work.
In assay [12] the test system is breast cancer cell line (MCF-7). The following applies: read-out: IC50 on breast cancer cell line (MCF-7); cited from earlier work.

EGFR TK, sequence (P00533 25-1210): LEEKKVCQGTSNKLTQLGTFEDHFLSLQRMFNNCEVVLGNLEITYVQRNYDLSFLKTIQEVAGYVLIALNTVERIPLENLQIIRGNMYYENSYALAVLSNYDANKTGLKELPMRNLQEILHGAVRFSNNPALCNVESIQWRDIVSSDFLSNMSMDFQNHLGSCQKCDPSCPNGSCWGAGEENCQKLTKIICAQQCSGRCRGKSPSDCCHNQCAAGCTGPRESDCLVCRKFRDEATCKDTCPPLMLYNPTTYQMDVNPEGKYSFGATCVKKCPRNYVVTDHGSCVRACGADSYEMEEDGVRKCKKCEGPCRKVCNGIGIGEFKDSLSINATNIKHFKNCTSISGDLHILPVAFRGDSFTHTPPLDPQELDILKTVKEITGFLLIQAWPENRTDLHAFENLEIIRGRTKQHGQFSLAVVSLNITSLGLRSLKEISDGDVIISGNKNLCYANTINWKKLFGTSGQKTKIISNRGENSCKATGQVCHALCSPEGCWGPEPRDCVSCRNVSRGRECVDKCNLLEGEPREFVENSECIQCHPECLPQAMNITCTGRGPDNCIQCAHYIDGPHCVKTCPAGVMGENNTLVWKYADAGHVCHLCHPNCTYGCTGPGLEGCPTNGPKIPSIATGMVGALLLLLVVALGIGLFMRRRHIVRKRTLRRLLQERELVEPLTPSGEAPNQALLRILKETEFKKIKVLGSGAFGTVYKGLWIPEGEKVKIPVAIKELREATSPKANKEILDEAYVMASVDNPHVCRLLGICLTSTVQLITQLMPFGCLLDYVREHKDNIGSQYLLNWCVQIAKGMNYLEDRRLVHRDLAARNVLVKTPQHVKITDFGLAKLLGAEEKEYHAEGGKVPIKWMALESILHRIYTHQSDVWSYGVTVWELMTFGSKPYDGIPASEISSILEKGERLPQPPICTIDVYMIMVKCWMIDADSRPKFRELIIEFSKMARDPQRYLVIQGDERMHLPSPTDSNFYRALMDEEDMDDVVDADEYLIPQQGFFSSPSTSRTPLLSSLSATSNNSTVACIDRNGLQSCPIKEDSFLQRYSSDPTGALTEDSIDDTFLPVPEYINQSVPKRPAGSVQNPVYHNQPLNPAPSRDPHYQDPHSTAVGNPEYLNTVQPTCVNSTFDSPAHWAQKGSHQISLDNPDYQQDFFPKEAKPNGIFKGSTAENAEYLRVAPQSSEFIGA

Regarding `O=c1[nH]cc(F)c(=O)[nH]1` [5-fluorouracil], the half-maximal inhibitory concentration (IC50) (commonly the point on the concentration scale where inhibition reaches its midpoint) in assay [1] (read-out: IC50 against A549 lung cancer cell lines) was less than 5 µM.

As to `N#Cc1c(N2C(=O)c3ccc(F)cc3C2=O)c(C(=O)Nc2ccccc2)n2c1CCC2` [Compound 6a, 7-Cyano-6-(5-fluoro-1,3-dioxoisoindolin-2-yl)-N-phenyl-2,3-dihydro-1H-pyrrolizine-5-carboxamide], the IC50 in assay [2] is greater than 100 µM; in assay [3], 93.5 ± 4.7 µM; in assay [4], 85.1 ± 4.1 µM.

As to `Cc1ccc(NC(=O)c2c(N3C(=O)c4ccc(F)cc4C3=O)c(C#N)c3n2CCC3)cc1` [Compound 6b, 7-Cyano-6-(5-fluoro-1,3-dioxoisoindolin-2-yl)-N-(p-tolyl)-2,3-dihydro-1H-pyrrolizine-5-carboxamide], the IC50 in [2] is 66.3 ± 3.1 µM; in assay [3], 58.1 ± 3.3 µM; in [4], 55.4 ± 3.2 µM.

`N#Cc1c(N2C(=O)c3ccccc3C2=O)c(C(=O)Nc2ccc(F)cc2)n2c1CCC2` [Compound 6c, 7-Cyano-6-(1,3-dioxoisoindolin-2-yl)-N-(4-fluorophenyl)-2,3-dihydro-1H-pyrrolizine-5-carboxamide]: the figures for the IC50 in assay [2], in [3] and in assay [4] were 47.9 ± 2.6 µM, 54.6 ± 3.1 µM and 49.1 ± 2.9 µM, respectively.

As to `N#Cc1c(N2C(=O)c3ccc(F)cc3C2=O)c(C(=O)Nc2ccc(F)cc2)n2c1CCC2` [Compound 6d, 7-Cyano-6-(5-fluoro-1,3-dioxoisoindolin-2-yl)-N-(4-fluorophenyl)-2,3-dihydro-1H-pyrrolizine-5-carboxamide], the IC50 in assay [5] was 362 ± 8 nM; in [2] it was 9.49 ± 0.6 µM; in [6] it was 6.02 to 13.9 µM; in assay [3] it was 13.9 ± 0.9 µM; in assay [4] it was 7.97 ± 0.5 µM. Also, the “P-gp RT-PCR fold change” value in assay [7] is 0.4097 fold.

With `COc1ccc(NC(=O)c2c(N3C(=O)c4ccccc4C3=O)c(C#N)c3n2CCC3)cc1` [Compound 6e, 7-Cyano-6-(1,3-dioxoisoindolin-2-yl)-N-(4-methoxyphenyl)-2,3-dihydro-1H-pyrrolizine-5-carboxamide], the values for the IC50 in [2], in assay [3] and in [4] were 38.1 ± 2.4 µM, 42.7 ± 2.5 µM and 45.4 ± 2.5 µM, respectively.

For `COc1ccc(NC(=O)c2c(N3C(=O)c4ccc(F)cc4C3=O)c(C#N)c3n2CCC3)cc1` [Compound 6f, 7-Cyano-6-(5-fluoro-1,3-dioxoisoindolin-2-yl)-N-(4-methoxyphenyl)-2,3-dihydro-1H-pyrrolizine-5-carboxamide], the IC50 in assay [2] was greater than 100 µM; in assay [3], greater than 100 µM; in assay [4], 88.3 ± 4.3 µM.

On to `N#Cc1c(N2C(=O)c3ccc(F)cc3C2=O)c(C(=O)Nc2ccc(Cl)cc2)n2c1CCC2` [Compound 6g, N-(4-Chlorophenyl)-7-cyano-6-(5-fluoro-1,3-dioxoisoindolin-2-yl)-2,3-dihydro-1H-pyrrolizine-5-carboxamide], for which the IC50 amounted to 60.2 ± 3.3 µM in [2], 69.4 ± 3.7 µM in assay [3] and 52 ± 2.8 µM in assay [4].

Turning to `N#Cc1c(N2C(=O)c3ccccc3C2=O)c(C(=O)Nc2ccc(Br)cc2)n2c1CCC2` [Compound 6h, N-(4-Bromophenyl)-7-cyano-6-(1,3-dioxoisoindolin-2-yl)-2,3-dihydro-1H-pyrrolizine-5-carboxamide], the half-inhibitory concentration (IC50) in assay [2] is greater than 100 µM; in assay [3], greater than 100 µM; in [4], 91.4 ± 4.8 µM.

Consider `N#Cc1c(N2C(=O)c3ccc(F)cc3C2=O)c(C(=O)Nc2ccc(Br)cc2)n2c1CCC2` [Compound 6i, N-(4-Bromophenyl)-7-cyano-6-(5-fluoro-1,3-dioxoisoindolin-2-yl)-2,3-dihydro-1H-pyrrolizine-5-carboxamide], for which the concentration for half-maximal inhibition (IC50) in assay [2] was 14.3 ± 1.1 µM; in assay [3], 25.3 ± 2 µM; in assay [4], 20.4 ± 1.5 µM.

As to `N#Cc1c(N2C(=O)c3ccccc3C2=O)c(C(=O)Nc2ccccc2)n2c1CCCC2` [Compound 6j, 1-Cyano-2-(1,3-dioxoisoindolin-2-yl)-N-phenyl-5,6,7,8-tetrahydroindolizine-3-carboxamide], the IC50 turned out to be 22.1 ± 1.6 µM in [2], 31.3 ± 2.3 µM in [3] and 34.1 ± 1.9 µM in assay [4].

As to `N#Cc1c(N2C(=O)c3ccc(F)cc3C2=O)c(C(=O)Nc2ccccc2)n2c1CCCC2` [Compound 6k, 1-Cyano-2-(5-fluoro-1,3-dioxoisoindolin-2-yl)-N-phenyl-5,6,7,8-tetrahydroindolizine-3-carboxamide], the figures for the concentration for half-maximal inhibition (IC50) in assay [2], in assay [3] and in assay [4] were 83.7 ± 4 µM, 80.6 ± 4.1 µM and 78.2 ± 3.8 µM, respectively.

In the case of `Cc1ccc(NC(=O)c2c(N3C(=O)c4ccccc4C3=O)c(C#N)c3n2CCCC3)cc1` [Compound 6l, 1-Cyano-2-(1,3-dioxoisoindolin-2-yl)-N-(p-tolyl)-5,6,7,8-tetrahydroindolizine-3-carboxamide], the 50% inhibitory concentration (IC50) turned out to be 57.5 ± 3.1 µM in [2], 63.2 ± 3.5 µM in assay [3] and 61.6 ± 3.5 µM in assay [4].

Regarding `Cc1ccc(NC(=O)c2c(N3C(=O)c4ccc(F)cc4C3=O)c(C#N)c3n2CCCC3)cc1` [Compound 6m, 1-Cyano-2-(5-fluoro-1,3-dioxoisoindolin-2-yl)-N-(p-tolyl)-5,6,7,8-tetrahydroindolizine-3-carboxamide], the half-maximal inhibitory concentration (IC50) came to 130 ± 11 nM in assay [5]; 28.4 ± 1.9 µM in [2]; 402 ± 86 nM in assay [8]; 19.9 ± 1.4 µM in assay [3]; 12 ± 0.8 µM in [4]. In assay [7], the “P-gp RT-PCR fold change” value is 0.6754 fold.

On to `N#Cc1c(N2C(=O)c3ccccc3C2=O)c(C(=O)Nc2ccc(F)cc2)n2c1CCCC2` [Compound 6n, 1-Cyano-2-(1,3-dioxoisoindolin-2-yl)-N-(4-fluorophenyl)-5,6,7,8-tetrahydroindolizine-3-carboxamide], for which the figures for the IC50 in assay [2], in [3] and in assay [4] were 71.3 ± 3.5 µM, 75.8 ± 3.9 µM and 65.4 ± 3.7 µM, respectively.

As for `N#Cc1c(N2C(=O)c3ccc(F)cc3C2=O)c(C(=O)Nc2ccc(F)cc2)n2c1CCCC2` [Compound 6o, 1-Cyano-2-(5-fluoro-1,3-dioxoisoindolin-2-yl)-N-(4-fluorophenyl)-5,6,7,8-tetrahydroindolizine-3-carboxamide], the half-inhibitory concentration (IC50) is 62 ± 3 nM in [5]; 5.84 ± 0.2 µM in assay [2]; 118 ± 16 nM in assay [8]; 6.02 to 13.9 µM in assay [6]; 8.89 ± 0.5 µM in assay [3]; 6.02 ± 0.3 µM in [4]. The “P-gp RT-PCR fold change” value in assay [7] was 0.2732 fold. The molecule further returned a Late cellular apoptosis in assay [9] (DMSO control 0.16%, upper right quadrant) of 26.51%. Also, in assay [9] (DMSO control 0.52%, lower right quadrant), the Early cellular apoptosis came out at 15.16%. For the same molecule, the Total cellular apoptosis in assay [9] (DMSO control 2.61%) is reported as 49.16%. In addition, the “Cells in G1 phase” value in assay [10] came out at 48.75%.

As for `COc1ccc(NC(=O)c2c(N3C(=O)c4ccccc4C3=O)c(C#N)c3n2CCCC3)cc1` [Compound 6p, 1-Cyano-2-(1,3-dioxoisoindolin-2-yl)-N-(4-methoxyphenyl)-5,6,7,8-tetrahydroindolizine-3-carboxamide], the values for the IC50 in assay [2], in [3] and in assay [4] were 79.6 ± 3.7 µM, 86.9 ± 4.3 µM and 73.3 ± 3.9 µM, respectively.

Take `COc1ccc(NC(=O)c2c(N3C(=O)c4ccc(F)cc4C3=O)c(C#N)c3n2CCCC3)cc1` [Compound 6q, 1-Cyano-2-(5-fluoro-1,3-dioxoisoindolin-2-yl)-N-(4-methoxyphenyl)-5,6,7,8-tetrahydroindolizine-3-carboxamide]: the half-inhibitory concentration (IC50) was determined as 32.2 ± 2.2 µM in assay [2], 37.4 ± 2.6 µM in assay [3] and 41.2 ± 2.3 µM in [4].

As for `COc1cccc2c1C(=O)c1c(O)c3c(c(O)c1C2=O)C[C@@](O)(C(=O)CO)C[C@@H]3O[C@H]1C[C@H](N)[C@H](O)[C@H](C)O1` [DOX, Doxorubicin, reference compound], in assay [4], the IC50 came to 4.5 ± 0.2 µM.

As for `O=C(c1ccccc1)c1ccc2n1CCC2C(=O)O` (centres unmarked) [Ketorolac], the IC50 in assay [1] (read-out: IC50 against lung cancer cell lines A549) is roughly 13 µM.

On to `COc1ccc(-c2csc3c2-n2cccc2C3=O)cc1O` [MR22388], for which the IC50 in assay [11] is 15 nM.

For the molecule `CC/C(=C(\c1ccccc1)c1ccc(OCCN(C)C)cc1)c1ccccc1` [Tamoxifen, reference compound], in assay [7], the “P-gp RT-PCR fold change” value stood at 0.2176 fold.

On to `CC1(C)Cc2c(-c3ccccc3)c(-c3ccc(Cl)cc3)c(CC(=O)O)n2C1` [licofelone], for which the half-inhibitory concentration (IC50) in [12] was 5.5 µM.
